The results in this text go back to PubChem BioAssay AID328 (DTP/NCI, 2004).

The assay has as its system BDF1 mice, P388 leukemia ip, median survival T/C. The assay can be described thus: NCI In Vivo Anticancer Drug Screen. Data for tumor model P388 Leukemia (intraperitoneal) in B6D2F1 (BDF1) mice. The settings on record: endpoint: median survival time, higher = longer survival. The gist of the method: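 In tumour-bearing mice, survival after compound treatment is set against the vehicle group and given as a quotient.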

[1] abbreviates: dose: 100.0 mg/kg/injection, schedule: Q04DX003 (ip), vehicle: Klucel (hydroxypropylcellulose) (HPC).
Setting [2] is: dose: 200.0 mg/kg/injection, schedule: Q01DX001 (ip), vehicle: Klucel (hydroxypropylcellulose) (HPC).
[3] abbreviates: dose: 400.0 mg/kg/injection, schedule: Q01DX001 (ip), vehicle: Klucel (hydroxypropylcellulose) (HPC).
[4] abbreviates: dose: 100.0 mg/kg/injection, schedule: Q01DX009 (ip), vehicle: saline with Tween-80.
[5] abbreviates: dose: 200.0 mg/kg/injection, schedule: Q01DX009 (ip), vehicle: saline with Tween-80.

SMILES strings stand for the structures. Where “and” joins values, the source holds several entries; their conditions need not be identical. Equal entries are not always repeated. Toxic doses and inconclusive results are not listed. Residues, ends and D or L forms follow the SMILES beside them.

In the case of `C1CCN(CC2CCCCN2)CC1` (stereo not given), the T/C (dose: 25.0 mg/kg/injection, schedule: Q01DX009 (ip), vehicle: Klucel (hydroxypropylcellulose) (HPC)) was 100 % of control; the T/C (dose: 25.0 mg/kg/injection, schedule: Q04DX003 (ip), vehicle: Klucel (hydroxypropylcellulose) (HPC)) was 105 % of control; the T/C (dose: 50.0 mg/kg/injection, schedule: Q01DX009 (ip), vehicle: Klucel (hydroxypropylcellulose) (HPC)) was 100 % of control; the T/C (dose: 50.0 mg/kg/injection, schedule: Q04DX003 (ip), vehicle: Klucel (hydroxypropylcellulose) (HPC)) is 100 % of control; the T/C (dose: 100.0 mg/kg/injection, schedule: Q01DX009 (ip), vehicle: Klucel (hydroxypropylcellulose) (HPC)) is 90 % of control; the T/C under setting [1] was 110 % of control.

`Cc1cc(Cl)ccc1NC(=O)c1ccc(Cl)cc1`: the T/C by setting is: (dose: 75.0 mg/kg/injection, schedule: Q01DX009 (ip), vehicle: Klucel (hydroxypropylcellulose) (HPC)) 113 % of control; (dose: 150.0 mg/kg/injection, schedule: Q01DX009 (ip), vehicle: Klucel (hydroxypropylcellulose) (HPC)) 95 % of control; (dose: 300.0 mg/kg/injection, schedule: Q01DX009 (ip), vehicle: Klucel (hydroxypropylcellulose) (HPC)) 100 % of control.

`O=N/N=c1/sc2ccccc2n1-c1ccccc1`: the T/C is, setting by setting: (dose: 25.0 mg/kg/injection, schedule: Q01DX001 (ip), vehicle: saline sonified) 100 % of control; (dose: 50.0 mg/kg/injection, schedule: Q01DX001 (ip), vehicle: saline sonified) 104 % of control; (dose: 100.0 mg/kg/injection, schedule: Q01DX001 (ip), vehicle: saline sonified) 100 % of control.

As to `COc1cccc(CCC(=O)O)c1`, the T/C is 100 % of control (dose: 100.0 mg/kg/injection, schedule: Q04DX003 (ip), vehicle: gum acacia); 104 % of control (dose: 200.0 mg/kg/injection, schedule: Q04DX003 (ip), vehicle: gum acacia); 113 % of control (dose: 400.0 mg/kg/injection, schedule: Q04DX003 (ip), vehicle: gum acacia).

For `CC1(C)CCC23CCC4(C)C(CCC5C6(C)CCC(O)C(C)(C)C6CCC54C)C2C1OC3=O` (stereo not given), the T/C (dose: 10.0 mg/kg/injection, schedule: Q01DX009 (ip), vehicle: Klucel (hydroxypropylcellulose) (HPC)) was 105 % of control; the T/C (dose: 20.0 mg/kg/injection, schedule: Q01DX009 (ip), vehicle: Klucel (hydroxypropylcellulose) (HPC)) was 119 % of control; the T/C (dose: 40.0 mg/kg/injection, schedule: Q01DX009 (ip), vehicle: Klucel (hydroxypropylcellulose) (HPC)) is 105 % of control.

Regarding `COc1ccc(C(=O)N/N=C(\C)[C@]2(O)Cc3c(O)c4c(c(O)c3[C@@H](OC3CC(N)C(O)C(C)O3)C2)C(=O)c2c(OC)cccc2C4=O)cc1` (stereo not given in full), the T/C (dose: 0.25 mg/kg/injection, schedule: Q01DX009 (ip), vehicle: water) is 117 % of control and 123 % of control; the T/C (dose: 1.0 mg/kg/injection, schedule: Q01DX009 (ip), vehicle: water) is 156 % of control and 212 % of control; the T/C (dose: 2.0 mg/kg/injection, schedule: Q01DX009 (ip), vehicle: water) is 275 % of control and 156 % of control; the T/C (dose: 4.0 mg/kg/injection, schedule: Q01DX009 (ip), vehicle: water) is 244 % of control and 107 % of control; the T/C (dose: 8.0 mg/kg/injection, schedule: Q01DX009 (ip), vehicle: water) is 107 % of control.

On to `CN1CCCC(CC2c3ccccc3Sc3ccccc32)C1` (stereo not given), for which the T/C was 100 % of control (dose: 7.5 mg/kg/injection, schedule: Q01DX010 (ip), vehicle: saline); 100 % of control (dose: 15.0 mg/kg/injection, schedule: Q01DX010 (ip), vehicle: saline); 100 % of control (dose: 30.0 mg/kg/injection, schedule: Q01DX010 (ip), vehicle: saline); 109 % of control (dose: 60.0 mg/kg/injection, schedule: Q01DX010 (ip), vehicle: saline).

Regarding `NC(=O)C(Cc1ccc(O)cc1)NC(=O)C(N)Cc1c[nH]c2ccccc12` (stereo not drawn) (H-Trp-Tyr-NH2; configuration not given here), the T/C by setting is: (dose: 50.0 mg/kg/injection, schedule: Q01DX005 (ip), vehicle: saline) 92 % of control; (dose: 100.0 mg/kg/injection, schedule: Q01DX005 (ip), vehicle: saline) 92 % of control; (dose: 200.0 mg/kg/injection, schedule: Q01DX005 (ip), vehicle: saline) 87 % of control.

Take `C=C(CC(=O)O)C(=O)O` (tested in a mixture with another compound): the T/C (dose: 44.0 mg/kg/injection, schedule: Q01DX009 (ip), vehicle: saline) is 120 % of control.

For `CCCCCCCCCC(=O)NC(CN1CCOCC1)C(=O)c1ccccc1` (stereo not given), the T/C by setting is: (dose: 12.5 mg/kg/injection, schedule: Q04DX003 (ip), vehicle: saline with Tween-80) 95 % of control; (dose: 25.0 mg/kg/injection, schedule: Q04DX003 (ip), vehicle: saline with Tween-80) 98 % of control; (dose: 50.0 mg/kg/injection, schedule: Q04DX003 (ip), vehicle: saline with Tween-80) 100 % of control.

Regarding `O=C1NC(c2ccccc2)(c2ccccc2)C(=O)N1CCBr`, the T/C (dose: 12.5 mg/kg/injection, schedule: Q01DX009 (ip), vehicle: saline) was 105 % of control and 121 % of control; the T/C (dose: 25.0 mg/kg/injection, schedule: Q01DX009 (ip), vehicle: saline) is 105 % of control and 113 % of control; the T/C (dose: 50.0 mg/kg/injection, schedule: Q01DX009 (ip), vehicle: saline) was 107 % of control and 113 % of control; the T/C (dose: 50.0 mg/kg/injection, schedule: Q04DX003 (ip), vehicle: saline) was 107 % of control.

In the case of `Cc1ccc(Nc2c3ccccc3nc3ccccc23)cc1`, the T/C (dose: 100.0 mg/kg/injection, schedule: Q01DX001 (ip), vehicle: Klucel (hydroxypropylcellulose) (HPC)) is 109 % of control; the T/C under setting [2] is 118 % of control; the T/C under setting [3] is 113 % of control.

Turning to `CCc1ccc(OS(=O)(=O)c2ccc([N+](=O)[O-])cc2)cc1`, the T/C (dose: 75.0 mg/kg/injection, schedule: Q01DX001 (ip), vehicle: saline with Tween-80) is 104 % of control; the T/C (dose: 150.0 mg/kg/injection, schedule: Q01DX001 (ip), vehicle: saline with Tween-80) is 100 % of control; the T/C (dose: 300.0 mg/kg/injection, schedule: Q01DX001 (ip), vehicle: saline with Tween-80) was 100 % of control.

For the molecule `O=[N+]([O-])c1ccc(NCCO)c([N+](=O)[O-])c1`, the T/C reads like this: (dose: 50.0 mg/kg/injection, schedule: Q01DX009 (ip), vehicle: saline with Tween-80) 101 % of control; under setting [4], 107 % of control; under setting [5], 113 % of control.

As for `COc1cccc2c1C(=O)c1c(O)c3c(c(O)c1C2=O)C[C@@](O)(C(C)=O)C[C@@H]3OC1CC(NC(=O)c2ccncc2)C(O)C(C)O1` (stereo not given in full), the T/C was 150 % of control (dose: 3.13 mg/kg/injection, schedule: Q01DX009 (ip), vehicle: water); 154 % of control (dose: 6.25 mg/kg/injection, schedule: Q01DX009 (ip), vehicle: water); 159 % of control (dose: 12.5 mg/kg/injection, schedule: Q01DX009 (ip), vehicle: water).

`Clc1ccc(-n2nnc3cc(Cl)ccc32)c(Cl)c1`: under setting [4], the T/C was 99 % of control.

For the molecule `C[C@]12C=CC(=O)C=C1CC[C@@H]1[C@@H]2[C@@H](O)C[C@@]2(C)[C@H]1CC[C@]2(O)C(=O)COC(=O)CCC(=O)O`, the T/C was 113 % of control (dose: 66.0 mg/kg/injection, schedule: Q04DX003 (ip), vehicle: saline with Tween-80); 113 % of control (dose: 100.0 mg/kg/injection, schedule: Q04DX003 (ip), vehicle: saline with Tween-80); 108 % of control (dose: 150.0 mg/kg/injection, schedule: Q04DX003 (ip), vehicle: saline with Tween-80); 118 % of control under setting [5]; 118 % of control (dose: 400.0 mg/kg/injection, schedule: Q01DX009 (ip), vehicle: saline with Tween-80); 104 % of control (dose: 400.0 mg/kg/injection, schedule: Q04DX003 (ip), vehicle: saline with Tween-80).

For the molecule `CSc1ccccc1C=O`, the T/C is, setting by setting: under setting [1], 95 % of control; (dose: 200.0 mg/kg/injection, schedule: Q04DX003 (ip), vehicle: Klucel (hydroxypropylcellulose) (HPC)) 100 % of control; (dose: 400.0 mg/kg/injection, schedule: Q04DX003 (ip), vehicle: Klucel (hydroxypropylcellulose) (HPC)) 112 % of control.

For the molecule `COC1CCC(C)(C=O)C(C#N)(C#N)C1(C#N)C#N` (stereo not given), the T/C runs as follows: (dose: 12.5 mg/kg/injection, schedule: Q01DX001 (ip), vehicle: saline with Tween-80) 98 % of control; (dose: 25.0 mg/kg/injection, schedule: Q01DX001 (ip), vehicle: saline with Tween-80) 114 % of control; (dose: 50.0 mg/kg/injection, schedule: Q01DX001 (ip), vehicle: saline with Tween-80) 109 % of control.

Turning to `O=C1OCC2CC3c4ccccc4C12c1ccccc13` (stereo not given), the T/C by setting is: under setting [2], 105 % of control; under setting [3], 95 % of control.
